Data on 14 compounds can be found in ChEMBL document CHEMBL1932930, “Synthesis and biological assessment of novel 2-thiazolylhydrazones and computational analysis of their recognition by monoamine oxidase B” (Eur J Med Chem, 2012).

Data set [1] concerns the target T1, Amine oxidase [flavin-containing] A (Homo sapiens, UniProt P21397).
T1 sequence (P21397 whole entry): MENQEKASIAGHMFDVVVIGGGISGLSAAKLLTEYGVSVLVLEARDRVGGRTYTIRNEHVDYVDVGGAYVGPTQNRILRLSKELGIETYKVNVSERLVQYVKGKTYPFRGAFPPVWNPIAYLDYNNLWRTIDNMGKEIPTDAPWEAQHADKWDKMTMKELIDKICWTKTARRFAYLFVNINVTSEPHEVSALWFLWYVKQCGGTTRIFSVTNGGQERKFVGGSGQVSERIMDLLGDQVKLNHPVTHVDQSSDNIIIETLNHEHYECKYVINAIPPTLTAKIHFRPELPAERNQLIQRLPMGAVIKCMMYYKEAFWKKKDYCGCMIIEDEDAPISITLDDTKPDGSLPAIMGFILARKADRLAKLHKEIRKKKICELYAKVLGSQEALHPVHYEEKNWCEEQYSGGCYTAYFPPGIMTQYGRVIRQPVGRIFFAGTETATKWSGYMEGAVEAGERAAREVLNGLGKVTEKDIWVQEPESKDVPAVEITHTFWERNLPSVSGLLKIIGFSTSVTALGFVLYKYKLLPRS
The experiment in a line: Inhibition of human recombinant MAO-A expressed in baculovirus infected BTI-TN-5B1-4 insect cells assessed as inhibition of hydrogen peroxide production from […] after 15 mins by fluorimetric method. To be noted: bti-tn-5b1-4, 0.25 h.

The target in data set [2] is T1, Amine oxidase [flavin-containing] A. Briefly: Inhibition of human recombinant MAO-A expressed in baculovirus infected BTI-TN-5B1-4 insect cells assessed as inhibition of hydrogen peroxide production from […] at 100 uM after 15 mins by fluorimetric method. To be noted: for inhibition at 100 µM: BTI-TN-5B1-4, human, 0.25 h; for inhibition (INH): human, bti-tn-5b1-4, 0.25 h, 100 µM.

Data set [3] has as its target T2, Amine oxidase [flavin-containing] B (Homo sapiens, UniProt P27338).
T2 sequence (P27338 whole entry): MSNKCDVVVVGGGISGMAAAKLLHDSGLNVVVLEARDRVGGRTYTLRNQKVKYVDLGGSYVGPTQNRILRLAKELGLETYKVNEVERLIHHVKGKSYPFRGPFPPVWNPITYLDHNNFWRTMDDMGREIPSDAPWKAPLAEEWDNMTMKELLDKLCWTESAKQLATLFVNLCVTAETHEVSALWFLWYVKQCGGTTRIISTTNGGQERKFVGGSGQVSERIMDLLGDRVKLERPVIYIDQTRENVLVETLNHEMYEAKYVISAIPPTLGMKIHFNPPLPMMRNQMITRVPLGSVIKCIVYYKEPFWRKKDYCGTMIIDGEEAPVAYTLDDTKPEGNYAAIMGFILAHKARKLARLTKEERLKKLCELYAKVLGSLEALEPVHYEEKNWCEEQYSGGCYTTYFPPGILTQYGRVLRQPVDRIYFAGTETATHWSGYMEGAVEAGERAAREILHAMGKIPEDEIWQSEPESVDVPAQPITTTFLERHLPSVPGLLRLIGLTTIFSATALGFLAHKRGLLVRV
The experiment in a line: biochemical.
Description: Inhibition of human recombinant MAO-B expressed in baculovirus infected BTI-TN-5B1-4 insect cells assessed as inhibition of hydrogen peroxide production from p-tryptamine after 15 mins by fluorimetric method

Data set [4] concerns the target T2, Amine oxidase [flavin-containing] B. The experiment in a line: Inhibition of human recombinant MAO-B expressed in baculovirus infected BTI-TN-5B1-4 insect cells assessed as inhibition of hydrogen peroxide production from […] at 100 uM after 15 mins by fluorimetric method. As to conditions: BTI-TN-5B1-4, human, 0.25 h; call rule not given here.
For data set [5] the target is unchanged. The experiment in a line: Inhibition of human recombinant MAO-B expressed in baculovirus infected BTI-TN-5B1-4 insect cells assessed as inhibition of hydrogen peroxide production from […] at 1 mM after 15 mins by fluorimetric method. To be noted: bti-tn-5b1-4, 0.25 h, 1000 µM.

As a reminder, the inhibition is the relative decrease from the control value, in per cent. A word on the IC50: it is the midpoint of a concentration-inhibition curve. Low readings indicate greater potency in that assay, high ones weaker potency in that assay. As for `Fc1ccc(-c2csc(N/N=C/c3ccccc3)n2)cc1`, the “inhibition (INH)” value in data set [1] is listed as “Dose-dependent effect”. In addition, the inhibition at 100 µM in data set [2] was determined as 40%. In data set [3], this compound yielded an IC50 of 790 nM.
On the same counts, the results for `Fc1ccc(-c2csc(N/N=C/c3ccc(Cl)cc3)n2)cc1` are “Dose-dependent effect”, 40% and 1320 nM.
Consider `COc1ccc(/C=N/Nc2nc(-c3ccc(F)cc3)cs2)cc1OC`, for which the “inhibition (INH)” value in data set [1] is given as “Dose-dependent effect”. Moreover, the inhibition at 100 µM in data set [2] stood at 40%. Half-maximal inhibition in data set [3] (IC50) required 2390 nM.
On the same counts, the results for `COc1ccc(/C=N/Nc2nc(-c3ccc(F)cc3)cs2)cc1` are “Dose-dependent effect”, 40% and 9240 nM.
On the same counts, the results for `Cc1ccccc1/C=N/Nc1nc(-c2ccc(F)cc2)cs1` are “Dose-dependent effect”, 40% and 190 nM.
Take `Cc1ccc(/C=N/Nc2nc(-c3ccc(F)cc3)cs2)cc1`: the results for the “inhibition (INH)” value in data set [1] and in data set [2] were “Dose-dependent effect” and “Not Active”, respectively. In data set [3], the IC50 stood at 44700 nM.
Consider `Clc1ccc(-c2csc(N/N=C/c3ccccc3)n2)cc1`, for which the “inhibition (INH)” value in data set [1] is “Dose-dependent effect”. Also, the inhibition at 100 µM in data set [2] and in data set [4] was 40% in each case.
`COc1ccc(/C=N/Nc2nc(-c3ccc(Cl)cc3)cs2)cc1OC`: the “inhibition (INH)” value in data set [1] is “Dose-dependent effect”. The inhibition at 100 µM in data set [2] and in data set [4] was 40% each time.
For the compound `Cc1ccccc1/C=N/Nc1nc(-c2ccc(Cl)cc2)cs1`, in data set [1], the “inhibition (INH)” value is on record as “Dose-dependent effect”. The inhibition at 100 µM in data set [2] and in data set [4] was 40% throughout.
Turning to `COc1ccc(/C=N/Nc2nc(-c3ccc(Cl)cc3)cs2)cc1`, the “inhibition (INH)” value in data set [1] is reported as “Dose-dependent effect”. For the same compound, the inhibition at 100 µM in data set [2] and in data set [4] was 40% each time.
As to `Clc1ccc(/C=N/Nc2nc(-c3ccc(Cl)cc3)cs2)cc1`, the “inhibition (INH)” value in data set [1] is “Dose-dependent effect”. Besides, the inhibition at 100 µM in data set [2] and in data set [4] was 40% each time.
As to `Cc1ccc(/C=N/Nc2nc(-c3ccc(Cl)cc3)cs2)cc1`, the results for the “inhibition (INH)” value in data set [1] and in data set [2] were “Dose-dependent effect” and “Not Active”, respectively. The inhibition at 100 µM in data set [4] was 40%.
Consider `C#CCN(C)CCCOc1ccc(Cl)cc1Cl` [CLORGILINE], for which the “inhibition (INH)” value in data set [1] is given as “Dose-dependent effect”.
`O=C(NCCN1CCOCC1)c1ccc(Cl)cc1` [MOCLOBEMIDE]: the entries for the “inhibition (INH)” value in data set [1] and in data set [5] were “Dose-dependent effect” and “Not Active”, respectively.
